From US5814638A, “Ophthalmic formulation for treating myopia comprising dopamine agonist and cyclodextrin” (LG Chemical Ltd., priority 1996, dated 1998)

How the values were obtained:
[1] = in vivo; cited from earlier work
[2] = Solubility of dopamine agonists in 10 mM citrate buffer (pH 5) at 25° C. with or without HPCD; format: physicochemical
Protocol: (§1) The stability and solubility of dopamine agonists, i.e., bromocriptine(BCT), apomorphine(APO), pergolide(PER), and lisuride(LIS) were tested as follows.
(§2) For the stability test, solutions each containing 100 μg/ml of the dopamine agonist in 10 mM citrate buffer(pH 5) were incubated at 25° C. for 30 days with or without added 2-hydroxypropyl-β-cyclodextrin(HPCD, average molar substitution=0.8, average molecular weight=1500; 20 wt % based on the solution).
(§3) The amounts of the dopamine agonists in sample solutions of the stability and solubility tests were determined by HPLC method with fluorescence detector.
(§4) Each data point in FIGS. 1A and 1B represents the mean of two determinations and each value in FIG. 2 is the mean±SD(standard deviation) of three determinations. […] The addition of HPCD also bring about marked increases in the solubilities of the dopamine agonists; by a factor of 19 for bromocriptine, and two for apomorphine, pergolide, and lisuride.

[3] = test system: eye of a young maturing animal; details: ocular administration; cited from earlier work
[4] = cited from earlier work; for Stability with sodium acetate: Tris buffer pH 7.4, sodium acetate added; for Stability in Tris buffer: pH 7.4
form-deprivation myopia = details: daily intravitreal injections; young chickens; cited from earlier work
[5] = Stability of dopamine agonists in 10 mM citrate buffer (pH 5) at 25° C. with or without HPCD; format: physicochemical; details: 100 μg/ml, 10 mM citrate buffer pH 5, 25° C., 30 days, with vs without 20 wt % HPCD
Protocol: as §1, §2, §3, §4

[6] = mucoadhesive polymer, e.g., polycarbophil; cited from earlier work
[7] = in vivo; cited from earlier work; remark: listed apart in the source

Compound: 2-hydroxypropyl-β-cyclodextrin
- Tolerability when administered [1]: innocuous when administered

Compound: CN1CCc2cccc3c2[C@H]1Cc1ccc(O)c(O)c1-3 [apomorphine]
- Increase in solubility by addition of HPCD (factor) ([2]; pH 5): two
- Inhibition of axial enlargement of the eye [3]: can inhibit, and in some cases completely prevent, the axial enlargement of the eye
- Stability with mercaptoethanol ([4]; 0.01% mercaptoethanol): stability of apomorphine is improved
- Stability with sodium acetate [4]: greatly enhanced
- Stability in Tris buffer [4]: unstable
- Stability with antioxidants ([4]; water or plasma, ascorbic acid and sodium bisulfate): can be stabilized by the addition of antioxidants
- Effect on form-deprivation myopia (FDM) (form-deprivation myopia): block form-deprivation myopia

Compound: CC(C)C[C@H]1C(=O)N2CCC[C@H]2[C@]2(O)O[C@](NC(=O)[C@@H]3C=C4c5cccc6[nH]c(Br)c(c56)C[C@H]4N(C)C3)(C(C)C)C(=O)N12 [bromocriptine]
- Effect of HPCD on stability [5]: significant increases in the stabilities

Compound: CCCC(=O)c1ccccc1 [butyrophenone]
- Inhibition of axial enlargement of the eye [3]: can inhibit, and in some cases completely prevent, the axial enlargement of the eye

Compound: NCCc1ccc(O)c(O)c1 [dopamine]
- Stability with sodium acetate [4]: greatly enhanced
- Stability in Tris buffer [4]: unstable

Compound: O=C(CCCN1CCC(O)(c2ccc(Cl)cc2)CC1)c1ccc(F)cc1 [haloperidol]
- Inhibition of axial enlargement of the eye [3]: can inhibit, and in some cases completely prevent, the axial enlargement of the eye

Compound: CCN(CC)C(=O)N[C@H]1C=C2c3cccc4[nH]cc(c34)C[C@H]2N(C)C1 [lisuride]
- Increase in solubility by addition of HPCD (factor) ([2]; 20 mg/ml, 10 mM citrate buffer pH 5, 25° C., 24 hours, 20 wt % HPCD vs none): two
- Effect of HPCD on stability [5]: does not affect the stabilities

Compound: CCCN1C[C@H](CSC)C[C@@H]2c3cccc4[nH]cc(c34)C[C@H]21 [pergolide]
- Increase in solubility by addition of HPCD (factor) ([2]; pH 5): two

Compound: gentamicin
- Penetration via the conjunctival-scleral pathway [6]: facilitated

Compound: poly(vinyl alcohol)
- Increase in the iris-ciliary body to plasma drug concentration ratio [7]: 52 fold
